# Patent US20260191809A1, “Pharmaceutical Compositions Of D10-Docosahexaenoic Acid Or Esters Thereof” (BioJiva LLC, priority 2022, published 2026)
# Columns and labels:
# geographic atrophy = assay: Protection against geographic atrophy after intravitreal ferric ammonium citrate; format: in vivo, C57BL/6J mice
# Excerpt: In this example, two cohorts of adult male wild-type C57BL/6J mice (Jackson Labs) were used. Both cohorts were fed identical feed containing 0.25% or 0.5% D-DHA or matching amounts of DHA as controls. After 4 weeks, the mice were given an intravitreal injection of 1 microliter of 0.5 millimolar ferric ammonium citrate diluted in 0.9% saline (test) or 1 microliter of 0.9% saline (control). Mice were then continued on their respective diets for 4 weeks after injection in order to evaluate whether D-DHA could protect against geographic atrophy which is related to AMD.
# [1] = Predicted steady-state D-DHA substitution and plasma decline without dosing in patients, modeled from the mouse data; parameters: species or system human
# [2] = as above; parameters: species or system human; settings: for D-DHA substitution rate at steady-state (% of total DHA): DHA in human diet 130 mg
# Excerpt: In contrast to controlled experimental diets, naturally occurring DHA is consumed by patients treated with D-DHA which can dilute the relative percentage of administered D-DHA absorbed with the total DHA pool and its final concentration at steady state in blood and eventually in the target tissue such as retina. The data and standard curves referred to above allow for the determination of retinal steady-state active D-DHA concentrations with reasonable accuracy by calculating the D-DHA/total DHA ratio in plasma and/or red blood cells. Table 4 exemplifies this by using a mean daily dietary intake of about 130 mg of DHA per day (which represents the 90th percentile of the mean usual DHA intake by males >51 years of age in the US.
# FIGS. 3, 4, 5, and 6 illustrate how measuring plasma and red blood cell active D-DHA concentrations can be used to predict expected retinal steady-state concentrations. With a known fixed daily dose and the measured of active D-DHA substitution rate at steady-state, this also allows to approximate and monitor the mean dietary DHA intake of individual patients and permits either a timely adjustment of the daily D-DHA dose or dietary interventions to reduce natural DHA intake until the desired therapeutic active D-DHA substitution levels, preferably about 50% or more, can be reached.
# In each case, the first order kinetics evidence that a dose of 250 mg dose of D-DHA will provide for a steady-state ratio of active D-DHA based on the total DHA concentration present, as set forth in Table 4. Extrapolating backwards from the case in Table 4, a dose of at least 130 mg/day of D-DHA should provide a 1:1 ratio of active D-DHA to DHA. That ratio has been shown above to be therapeutic. And a dose of 250 mg of higher should provide a ratio of 1.9:1 or higher which provides a margin for non-compliance as described herein above.
# Tables 5, 6, and 7 are based on Table 2 and describe the time it takes for plasma D-DHA levels to fall below 50% or below 20% with 5 different daily doses of D-DHA in (i) patients in the 90th percentile of daily intake consuming up to 130 mg DHA (Table 5), (ii) those in the 95th percentile with a daily intake of up to 180 mg DHA (Table 6), and (iii) an example of a patient consuming more than one meal of oily fish per week with up to 260 mg daily DHA intake.
# [3] = mouse, in vivo
# Excerpt: Mature adult C57BL/6J mice were fed for 77 days with a customized rodent diet containing 0.5% w/w D-DHA and no natural DHA. The animals were sacrificed, and plasma, red blood cells and retinal tissues were dissected at study Days 8, 19, 38, 77, (six animals per time point, 3 males+3 females). Active D-DHA+DHA were extracted from samples and derivatized into methyl esters with a mixture of heptane/toluene (63:37 by volume), and methanol/dimethoxypropane/sulfuric acid (85:11:4 by volume) by gentle shaking at 80° C. for 2 hours, followed by separation and drying down of the organic phase under nitrogen. D-DHA+DHA methyl esters were structurally identified and quantified by gas chromatography coupled with a tandem mass spectrometry detector and D-DHA substitution levels (in percent of total DHA) were calculated.
# [4] = Daily D-DHA Dose 250 mg, Background DHA/Day 130 mg
# [5] = Daily D-DHA Dose 250 mg, Background DHA/Day 180 mg
# [6] = Daily D-DHA Dose 250 mg, Background DHA/Day 260 mg
# [7] = Daily D-DHA Dose 500 mg, Background DHA/Day 130 mg
# [8] = Daily D-DHA Dose 500 mg, Background DHA/Day 180 mg
# [9] = Daily D-DHA Dose 500 mg, Background DHA/Day 260 mg
# [10] = Daily D-DHA Dose 750 mg, Background DHA/Day 260 mg
# [11] = Daily D-DHA Dose 1000 mg, Background DHA/Day 260 mg
smiles,measurement,setting,value
"[2H]C([2H])(/C=C\CC)/C=C\C([2H])([2H])/C=C\C([2H])([2H])/C=C\C([2H])([2H])/C=C\C([2H])([2H])/C=C\CCC(=O)O [D-DHA, D-10-docosahexaenoic acid]",protection against geographic atrophy,"geographic atrophy; concentration of D-DHA at least 50% of the total DHA in the retina, feed 0.25% or 0.5% D-DHA, 4 weeks after iron injection",fully protected
same,protection against geographic atrophy,geographic atrophy; lower concentrations of D-DHA to DHA in the retina (below 50%),protection was achieved but at reduced rates
same,protection against geographic atrophy,geographic atrophy; ratios of about 1:4 of D-DHA to DHA,protection is accorded
same,protection against geographic atrophy,geographic atrophy; ratios of at least about 1:1 D-DHA to DHA,maximal
same,time to red blood cell steady state concentration of active D-DHA after the start of therapy,"[1]; red blood cell, patients",about 45 days
same,time to steady state concentration of active D-DHA after start of therapy,[1]; skeletal muscle tissue,about 11 weeks
same,ratio of D-DHA to DHA at steady state,"[2]; 250 mg D-DHA per day, on average about 130 mg per day of DHA, plasma, red blood cells, liver, skeletal muscle",1.92 to 1
same,Time to reach 20% in Plasma (0.2:1 D-DHA to DHA Ratio) w/o taking oral D-DHA,[2]; [4],≤ 77 days
same,Time to reach ≤50% in Plasma (1:1 D-DHA to DHA Ratio) w/o taking oral D-DHA,[2]; [4],≤ 22 days
same,Days to reach ≤50% in Plasma (1:1 D-DHA to DHA Ratio) w/o taking oral D-DHA,[2]; [5],≤ 11 days
same,Time to reach 20% in Plasma (0.2:1 D-DHA to DHA Ratio) w/o taking oral D-DHA,[2]; [5],≤ 66 days
same,Days to reach ≤50% in Plasma (1:1 D-DHA to DHA Ratio) w/o taking oral D-DHA,[2]; [6],below 50%
same,Time to reach 20% in Plasma (0.2:1 D-DHA to DHA Ratio) w/o taking oral D-DHA,[2]; [6],≤ 29 days
same,Time to reach 20% in Plasma (0.2:1 D-DHA to DHA Ratio) w/o taking oral D-DHA,[2]; [7],≤ 46 days
same,Time to reach ≤50% in Plasma (1:1 D-DHA to DHA Ratio) w/o taking oral D-DHA,[2]; [7],≤ 6 days
same,Days to reach ≤50% in Plasma (1:1 D-DHA to DHA Ratio) w/o taking oral D-DHA,[2]; [8],≤ 35 days
same,Time to reach 20% in Plasma (0.2:1 D-DHA to DHA Ratio) w/o taking oral D-DHA,[2]; [8],≤ 90 days
same,Days to reach ≤50% in Plasma (1:1 D-DHA to DHA Ratio) w/o taking oral D-DHA,[2]; [9],≤ 8 days
same,Time to reach 20% in Plasma (0.2:1 D-DHA to DHA Ratio) w/o taking oral D-DHA,[2]; [9],≤ 63 days
same,Time to reach ≤50% in Plasma (1:1 D-DHA to DHA Ratio) w/o taking oral D-DHA,"[2]; Daily D-DHA Dose 750 mg, Background DHA/Day 130 mg",≤ 60 days
same,Days to reach ≤50% in Plasma (1:1 D-DHA to DHA Ratio) w/o taking oral D-DHA,"[2]; Daily D-DHA Dose 750 mg, Background DHA/Day 180 mg",≤ 49 days
same,Days to reach ≤50% in Plasma (1:1 D-DHA to DHA Ratio) w/o taking oral D-DHA,[2]; [10],≤ 26 days
same,Time to reach 20% in Plasma (0.2:1 D-DHA to DHA Ratio) w/o taking oral D-DHA,[2]; [10],≤ 81 days
same,Time to reach ≤50% in Plasma (1:1 D-DHA to DHA Ratio) w/o taking oral D-DHA,"[2]; Daily D-DHA Dose 1000 mg, Background DHA/Day 130 mg",≤ 70 days
same,Days to reach ≤50% in Plasma (1:1 D-DHA to DHA Ratio) w/o taking oral D-DHA,"[2]; Daily D-DHA Dose 1000 mg, Background DHA/Day 180 mg",≤ 59 days
same,Days to reach ≤50% in Plasma (1:1 D-DHA to DHA Ratio) w/o taking oral D-DHA,[2]; [11],≤ 38 days
same,Time to reach 20% in Plasma (0.2:1 D-DHA to DHA Ratio) w/o taking oral D-DHA,[2]; [11],≤ 93 days
same,Time to reach ≤50% in Plasma (1:1 D-DHA to DHA Ratio) w/o taking oral D-DHA,"[2]; Daily D-DHA Dose 1250 mg, Background DHA/Day 130 mg",≤ 77 days
same,Days to reach ≤50% in Plasma (1:1 D-DHA to DHA Ratio) w/o taking oral D-DHA,"[2]; Daily D-DHA Dose 1250 mg, Background DHA/Day 180 mg",≤ 67 days
same,Days to reach ≤50% in Plasma (1:1 D-DHA to DHA Ratio) w/o taking oral D-DHA,"[2]; Daily D-DHA Dose 1250 mg, Background DHA/Day 260 mg",≤ 47 days
same,D-DHA substitution rate at steady-state (% of total DHA),[2]; Fixed daily D-DHA dose 250 mg,66%
same,D-DHA substitution rate at steady-state (% of total DHA),[2]; Fixed daily D-DHA dose 500 mg,79%
same,D-DHA substitution rate at steady-state (% of total DHA),[2]; Fixed daily D-DHA dose 1000 mg,88%
same,time to plasma steady state concentration of active D-DHA after the start of therapy,"[2]; plasma, patients",about 14 days
same,accretion half-life,[3],~210 h
